Earlier results as cited in PMC5594551, “Heterogeneous drug penetrance of veliparib and carboplatin measured in triple negative breast tumors” (Breast Cancer Research : BCR, 2017).

Tests used:
TNBC = test system: TNBC; set-up: method as in ref [4] = [4]; 4. Rugo HS, et al. Veliparib/carboplatin plus standard neoadjuvant therapy for high-risk breast cancer: first efficacy results from the I-SPY 2 TRIAL [abstract]. Cancer Res. 2013;73:Abstract nr S5_02.; settings: veliparib 50 mg BID combined with carboplatin, neoadjuvant; ref [4]; cited from earlier work
[1] = test system: metastatic BRCA-mutated breast cancer; set-up: method as in ref [52] = [52]; 52. Somlo G Phase II trial of single agent PARP inhibitor ABT-888 (veliparib [vel]) followed by postprogression therapy of vel with carboplatin (carb) in patients (pts) with stage BRCA-associated meta; settings: veliparib 400 mg BID until disease progression; ref [52]; cited from earlier work

For `C[C@]1(c2nc3c(C(N)=O)cccc3[nH]2)CCCN1` [veliparib], the “TN patients without pathologic complete response (pCR)” value (TNBC) is given as “approximately 42%” and the “Patients with partial response” value [1] is given as 20%.
